From PMC12004904, “Antifouling Activity of Xylemin, Its Structural Analogs, and Related Polyamines” (Chemistry & Biodiversity, 2025)
In brackets after ≈: the same amount, converted by molar mass.

Tests used:
[1] = system: cypris larvae of the barnacle Amphibalanus amphitrite; experiment: Antifouling (settlement inhibition) assay against barnacle cypris larvae; assay type: in vivo; conditions: 96 h; for EC50: Amphibalanus amphitrite; for EC50 / Antifouling activity EC50: cypris larvae, 24‐well plates, 25°C, dark, concentration reducing larval settlement to 50% of negative control; for Antifouling (settlement‐inhibitory) activity in words: up to 50 µg/mL
Description: First, the biological activities of xylemin (1) and its related compounds were assayed against the cypris larvae of the barnacle A. amphitrite. The larvae were treated using 24‐well polystyrene plates with 6 different concentrations of the compounds at 25°C in the dark for 96 h.
Evaluation of the biological activity and statistical analysis were conducted according to the previous work. Adult barnacles of A. amphitrite attached to stones were collected in Kobe, Japan, in 2023 and maintained in aquaria. Nauplii released from adults were cultured in filtered seawater (FSW) with penicillin/streptomycin (FUJIFILM Wako Pure Chemical Corp., Osaka, Japan) and fed Chaetoceros calcitrans at 25°C, under a 12 h light/12 h dark cycle. The larvae reached the cypris stage after 5–6 days. Cyprids were collected, rinsed with FSW, and stored in the dark at 5°C for 3–4 days until use. The effects of the compounds on barnacle cyprids were evaluated using 24‐well polystyrene plates (Corning Inc., Corning, NY, USA). Each compound was dissolved in MeOH, and the solution was diluted with the same solvent to concentrations of 0.01, 0.03, 0.1, 0.3, 1.0, and 5.0 µg/µL. Aliquots (10 µL) of the solutions were added to the wells of the polystyrene plates and air‐dried. Each well was charged with approximately ten cypris larvae and FSW (1.0 mL). The plates were incubated at 25°C in the dark for 96 h. […] Each concentration was tested in three wells, and the experiment was performed three times with different batches of larvae. The assay was conducted using CuSO4 (0.01, 0.03, 0.1, 0.3, 1.0, 3.0, and 10 µg) as a positive control. An assay without any compound was used as a negative control. Settlement inhibition was calculated based on negative control settlement. Antifouling activity (EC50) and toxicity (LC50) were calculated using probit analyses. EC50 indicates the concentration that reduces the larval settlement to 50% of the negative control. LC50 indicates the concentration that causes 50% mortality.

[2] = system: zooplankton Artenia larvae; parameters: method as in PMID 27919420; conditions: cited from earlier work
barnacle A. amphitrite = system: barnacle A. amphitrite; parameters: method as in ref 30 = [30]; 30 J. A. Ponasik , S. Conova , D. Kinghorn , W. A. Kinney , D. Rittschof , and B. Ganem , “ Pseudoceratidine, a Marine Natural Product with Antifouling Activity: Synthetic and Biological Studies ,” Te; conditions: cited from earlier work
xylem formation = system: xylem formation; parameters: method as in PMID 26879262; conditions: cited from earlier work
[3] = system: thermospermine synthase ACAULIS5 (ACL5); parameters: method as in ref 25 = [25]; 25 H. Takamura , H. Motose , T. Otsu , et al., “ Chemical Synthesis and Biological Effect on Xylem Formation of Xylemin and Its Analogues ,” European Journal of Organic Chemistry 2020 ( 2020 ): 2745 –; conditions: cited from earlier work

Row | SMILES | EC50 [1] [µg/mL] | Antifouling (settlement‐inhibitory) activity in words [1] | further results
1 | NCCCCNC1CCCCCC1 [Compound 6, N‐(4‐aminobutyl)cycloheptylamine] | > 50 | lacked antifouling activity | 
2 | NCCCCNCCCNCCCN [thermospermine] | > 50 |  | 
3 | NCCCNCCCCNCCCN [Compound 9, spermine, reference compound] |  |  | Antifouling activity EC50 [1]: >50 µg/mL
4 | NCCCCNCCCN [Compound 8, spermidine, reference compound] |  | did not exhibit antifouling activity | Antifouling activity EC50 [1]: >50 µg/mL
5 | NCCCCNC1CCCCC1 [Compound 5, N‐(4‐aminobutyl)cyclohexylamine] | > 50 | lacked antifouling activity | 
6 | CN(C)C(=O)Nc1ccc(Cl)c(Cl)c1 [Diuron] |  |  | LC50 (50% lethal concentration) [2]: 30.6 mg/L (≈ 131 µM)
7 | CCCNCCCCNC(=O)OC(C)(C)C [Compound 2] | 6.11 (≈ 26.5 µM) |  | 
8 | NCCCNCCCCNCCCN [spermine] | > 50 |  | 
9 | NCCCCNCCCNCCCN [Compound 10, thermospermine, reference compound] |  |  | Antifouling activity EC50 [1]: >50 µg/mL
10 | O=C(O)c1cc(Br)c(Br)[nH]1 [4,5‐dibromopyrrole‐2‐carboxylic acid] |  |  | Antifouling activity EC50 (barnacle A. amphitrite): 15 µg/mL
11 | CCC(CC)NCCCCN [Compound 3, N‐(4‐aminobutyl)‐1‐ethylpropylamine] | > 50 |  | 
12 | NCCCCNC1CCCC1 [Compound 4, N‐(4‐aminobutyl)cyclopentylamine] | > 50 | no inhibitory activity | Xylem formation / differentiation (xylem formation): significant activity in promoting xylem differentiation
13 | NCCCCN [Compound 7, putrescine, reference compound] | > 50 | non‐antifouling activity | 
14 | NCCCCNCCCN [spermidine] | > 50 |  | 
15 | NCCCCNC1CCCC1 [N‐(4‐aminobutyl)cyclopentylamine] |  |  | Expression of ACL5 [3]: promoted the expression; Xylem formation / differentiation (xylem formation): enhanced xylem formation
16 | CCCNCCCCN [Compound 1, N‐(4‐aminobutyl)propylamine] | 4.25 (≈ 32.6 µM) |  | Expression of ACL5 [3]: promoted the expression; Xylem formation / differentiation (xylem formation): enhanced xylem formation
